Data set [1] is described as follows: Oxidation study, exposure to 30% H2O2. The note with it: 30% H2O2 for 3 hours; for weight loss after oxidative degradation (relative to a control sample): assay measurement. Type of data set: physicochemical. The source says: It is therefore apparent that amorphous BA9 is more susceptible to oxidative degradation.
The nature of data set [2]: Dark Control, storage at standard laboratory temperature without light. Particulars: for Major Degradants, % (RT 4.5 min): HPLC RT 4.5 min; for Major Degradants, % (RT 4.9 min): HPLC RT 4.9 min; for Major Degradants, % (RT 6.2 min): HPLC RT 6.2 min; for Major Degradants, % (RT 10.4 min): HPLC RT 10.4 min; for Major Degradants, % (RT 10.7 min): HPLC RT 10.7 min; for Major Degradants, % (RT 11.0 min): HPLC RT 11.0 min; for Purity Assay, %: standard laboratory temperature, no light, duration of the study.

Data set [3] in a line: Photolysis study per ICH Q1B (photostability). Particulars: for Major Degradants, % (RT 4.2 min): HPLC RT 4.2 min; for Major Degradants, % (RT 4.5 min): HPLC RT 4.5 min; for Major Degradants, % (RT 4.9 min): HPLC RT 4.9 min; for Major Degradants, % (RT 6.2 min): HPLC RT 6.2 min; for Major Degradants, % (RT 7.9 min): HPLC RT 7.9 min; for Major Degradants, % (RT 10.4 min): HPLC RT 10.4 min; for Major Degradants, % (RT 10.7 min): HPLC RT 10.7 min; for Major Degradants, % (RT 11.0 min): HPLC RT 11.0 min.
Description: Photolysis studies were performed on amorphous and crystalline BA9 (i.e, Form I).

The nature of data set [4]: Dynamic vapor sorption (DVS) experiment. In kind it is physicochemical. The procedure:
Batch profiling and polymorph screening methods. BA9 Lots 2A and 2B were purified using precipitation from n-hexanes as described above. After the purification process, Lot 2A (82.9 g) was dissolved in methanol (190 g) and precipitated by adding the methanol solution to water. The combined methanolic solution was transferred to an addition funnel and then slowly charged within 1 hour and 15 minutes into vigorously stirred water for injection (2.18 kg) in a reactor at a temperature range of 0-5° C. After completion of the addition of the methanolic solution of BA9, the resulting white suspension was stirred for an additional 15 minutes at the same temperature range. The precipitated BA9 was isolated in 84.8% yield (purity was 96.3% as determined by HPLC). The suspension was then filtered, and the isolated white solid was washed on the filter. Lot 2A was characterized by XRPD and DSC and Lot 2B was characterized by XRPD, DSC, optical microscopy, and infrared (IR) spectroscopy.
A DVS experiment was run on Lot 2B. The increase in mass of the sample was ˜0.5% at 90% RH.

The mark [5] stands for this setting: Photolysis - VIS/UV, minimum 1.2 million lux hours and not less than 200 W·hours/m^2 per ICH Q1B.

Turning to `CCOCCOC1CCC(CC(C)C2CC(=O)C(C)C=C(C)C(O)C(OC)C(=O)C(C)CC(C)C=CC=CC=C(C)C(OC)CC3CCC(C)C(O)(O3)C(=O)C(=O)N3CCCCC3C(=O)O2)CC1OC` (centres unmarked) [Amorphous BA9, 40-O-(2-ethoxyethyl) rapamycin], in data set [1], the “weight loss after oxidative degradation (relative to a control sample)” value amounted to 6.5%. Moreover, in data set [2], the “Major Degradants, % (RT 4.5 min)” value is on record as 0.72%; the “Major Degradants, % (RT 4.9 min)” value was determined as 0.31%; the “Major Degradants, % (RT 6.2 min)” value was 0.20%; the “Major Degradants, % (RT 10.4 min)” value came to 0.44%. In data set [2], the “Major Degradants, % (RT 10.7 min)” value was determined as 1.40%; the “Major Degradants, % (RT 11.0 min)” value came out at 0.39%; the “Purity Assay, %” value turned out to be 88.2%. Also, the “Purity Assay, %” value in data set [2] (listed as amorphous BA9) was 88.2%. In data set [3] (Photolysis - VIS/UV), the “Major Degradants, % (RT 4.2 min)” value is recorded as 1.30%; the “Major Degradants, % (RT 4.5 min)” value came out at 7.40%; the “Major Degradants, % (RT 4.9 min)” value was found to be 1.20%; the “Major Degradants, % (RT 6.2 min)” value is 2.50%. Besides, in data set [3] (Photolysis - VIS/UV), the “Major Degradants, % (RT 7.9 min)” value worked out at 2.20%; the “Major Degradants, % (RT 10.4 min)” value came to 1.70%; the “Major Degradants, % (RT 10.7 min)” value came out at 0.94%; the “Major Degradants, % (RT 11.0 min)” value was 2.60%. Also, the “Purity Assay, %” value in data set [3] (setting [5]) came out at 16.3%. Further, the “Purity Assay, %” value in data set [3] (Photolysis - VIS/UV, minimum 1.2 million lux hours and not less than 200 W·hours/m^2 per ICH Q1B, listed as amorphous BA9) is listed as 16.3%. Also, in data set [3] (T = 0 Control), the “Purity Assay, %” value turned out to be 98.0%.

Regarding `CCOCCOC1CCC(CC(C)C2CC(=O)C(C)C=C(C)C(O)C(OC)C(=O)C(C)CC(C)C=CC=CC=C(C)C(OC)CC3CCC(C)C(O)(O3)C(=O)C(=O)N3CCCCC3C(=O)O2)CC1OC` (centres unmarked) [Crystalline BA9, 40-O-(2-ethoxyethyl) rapamycin], the “levels of major degradants after oxidative degradation (vs amorphous BA9)” value in data set [1] (HPLC) is “lower levels of major degradants overall”. Further, the “weight loss after oxidative degradation (relative to a control sample)” value in data set [1] worked out at 3.4%. Also, the “Major Degradants, % (RT 4.2 min)” value in data set [2] (HPLC RT 4.2 min) worked out at 0.01%. Further, in data set [2], the “Major Degradants, % (RT 4.5 min)” value is on record as 0.08%; the “Major Degradants, % (RT 4.9 min)” value worked out at 0.41%; the “Major Degradants, % (RT 6.2 min)” value amounted to 0.09%; the “Major Degradants, % (RT 10.4 min)” value is 0.03%. Moreover, in data set [2], the “Major Degradants, % (RT 10.7 min)” value stood at 0.06%; the “Major Degradants, % (RT 11.0 min)” value was 0.67%; the “Purity Assay, %” value is listed as 98.0%. Also, the “Purity Assay, %” value in data set [2] (listed as crystalline BA9) was determined as 98.0%. In data set [3] (Photolysis - VIS/UV), the “Major Degradants, % (RT 4.2 min)” value stood at 0.76%; the “Major Degradants, % (RT 4.5 min)” value is reported as 2.00%; the “Major Degradants, % (RT 4.9 min)” value came to 2.60%; the “Major Degradants, % (RT 6.2 min)” value stood at 0.94%. For the same molecule, in data set [3] (Photolysis - VIS/UV), the “Major Degradants, % (RT 7.9 min)” value was 0.07%; the “Major Degradants, % (RT 10.4 min)” value is given as 0.15%; the “Major Degradants, % (RT 10.7 min)” value came to 0.69%; the “Major Degradants, % (RT 11.0 min)” value is on record as 0.51%. The “Purity Assay, %” value in data set [3] (setting [5]) is 70.2%. Besides, the “Purity Assay, %” value in data set [3] (Photolysis - VIS/UV, minimum 1.2 million lux hours and not less than 200 W·hours/m^2 per ICH Q1B, listed as crystalline BA9) was determined as 70.2%. Further, the “Purity Assay, %” value in data set [3] (T = 0 Control) came to 97.7%. For the same molecule, the “solid form of post DVS sample by XRPD” value in data set [4] (after DVS experiment) is “confirmed as Form I”. Besides, the “increase in mass of the sample” value in data set [4] (at 90% RH) is on record as about 0.5%.

(Values after US11780850B2, “Purification of rapamycin derivatives using temperature induced phase separation” (Biosensors International Group, Ltd., priority 2013, dated 2023).)
